The source of these data is patent publication US20040029891A1, “Use of PDE5 inhibitors in the treatment of polycystic ovary syndrome” (Pfizer Inc., priority 2002, published 2004).

For one experiment, the system named is cattle. The experiment can be described thus: Uterine horn histology (endometrial epithelial thickness) in cattle. Type of experiment: in vivo. The settings on record: intra-vaginally twice daily, 30 days, relative to control animals (FIG. 4). The method, then:
Oestrous was synchronised using two intramuscular injections of PGF2a (Lutalyse™) administered 11 days apart.
The pyrazolopyrimidinone PDE V inhibitor was administered intra-vaginally twice daily from day −3 of oestrus until day 6 of the following oestrus (30 days in total). Blood samples were collected daily, plasma was prepared as soon as possible and stored at −20° C. and then analysed for progesterone.
At the completion of the study (ie day 6 of the second oestrous period) the cattle were euthanised and the reproductive tract collected. A cross section of the left and right horns of each uterus was collected and stored in 10% Formalin and ten analysed histologically.

Experiment [1] has as its system ob/ob mice. Briefly: Plasma triglycerides in ob/ob mice, 5 day dosing. It is filed as in vivo, mouse. Conditions: summary in words. Here is the method:
(§1) The selective pyrazolopyrimidinone PDEV inhibitor compounds to be tested were solubilized in 10% DMSO/0.1% pluronics and dosed via oral gavage using mouse oral feeding needles (20 gauge, Popper & Sons, Inc., New Hyde Park, N.Y.). A volume of 4 ml/kg weight was administered for each dose. Compounds were tested at doses ranging from 1-50 mg/kg. Alternatively, the test selective pyrazopyrimidinone PDEV inhibitor compound was administered in the drinking water and found to produce similar reductions in plasma glucose and triglycerides to the reductions observed for the same compound when administered by oral gavage. […]
(§2) Mice were allowed to acclimate to the Pfizer animal facilities for 1 week prior to the start of the study. On day one, retro-orbital blood samples were obtained and plasma glucose was determined as described hereinafter. […] Body weight was measured on days 1 and 5 of the study, and food consumption was assessed over the 5 day period.
(§3) On the morning of the last day of the study mice were dosed with test pyrazolopyrimidinone PDEV compound or vehicle at approximately 8:00 am. […] Plasma samples were stored at −80° C. until analyzed.
(§4) Plasma glucose and triglycerides were measured using the Alcyon Clinical Chemistry Analyzer (Abbott Laboratories, Abbott Park, Ill.) using kits supplied by Abbott. […]

The test system of experiment [2] is ob/ob mice. Briefly: Plasma glucose in ob/ob mice, 5 day dosing. Type of experiment: in vivo, mouse. Conditions: summary in words. The method, then: as §1, §2, §3, §4

For the molecule `CCCOc1ccc(S(=O)(=O)N2CCN(CC)CC2)cc1-c1nc2c(CC)n(Cc3ccccn3)nc2c(=O)[nH]1` [PDE5 A, 3-ethyl-5-[5-(4-ethylpiperazin-1-ylsulphonyl)-2-n-propoxyphenyl]-2-(pyridin-2-yl)methyl-2,6-dihydro-7H-pyrazolo[4,3-d]pyrimidin-7-one], in the experiment with cattle, the endometrial epithelial thickness result is given as “increases endometrial epithelial thickness”.

`CCCc1nn(C)c2c(=O)[nH]c(-c3cc(S(=O)(=O)N4CCN(C)CC4)ccc3OCC)nc12` [PDE5 C, 5-[2-ethoxy-5-(4-methyl-1-piperazinylsulphonyl)phenyl]-1-methyl-3-n-propyl-1,6-dihydro-7H-pyrazolo[4,3-d]pyrimidin-7-one]: the serum triglyceride levels entry with ob/ob mice [1] is listed as “reduce”. The plasma glucose levels result with ob/ob mice [2] was “reduce”.
